For 23 compounds, IC50 results are on record in patent US12252488B2 (Nimbus Saturn, Inc., priority 2021, dated 2025).

T1 sequence (Q92918 whole entry): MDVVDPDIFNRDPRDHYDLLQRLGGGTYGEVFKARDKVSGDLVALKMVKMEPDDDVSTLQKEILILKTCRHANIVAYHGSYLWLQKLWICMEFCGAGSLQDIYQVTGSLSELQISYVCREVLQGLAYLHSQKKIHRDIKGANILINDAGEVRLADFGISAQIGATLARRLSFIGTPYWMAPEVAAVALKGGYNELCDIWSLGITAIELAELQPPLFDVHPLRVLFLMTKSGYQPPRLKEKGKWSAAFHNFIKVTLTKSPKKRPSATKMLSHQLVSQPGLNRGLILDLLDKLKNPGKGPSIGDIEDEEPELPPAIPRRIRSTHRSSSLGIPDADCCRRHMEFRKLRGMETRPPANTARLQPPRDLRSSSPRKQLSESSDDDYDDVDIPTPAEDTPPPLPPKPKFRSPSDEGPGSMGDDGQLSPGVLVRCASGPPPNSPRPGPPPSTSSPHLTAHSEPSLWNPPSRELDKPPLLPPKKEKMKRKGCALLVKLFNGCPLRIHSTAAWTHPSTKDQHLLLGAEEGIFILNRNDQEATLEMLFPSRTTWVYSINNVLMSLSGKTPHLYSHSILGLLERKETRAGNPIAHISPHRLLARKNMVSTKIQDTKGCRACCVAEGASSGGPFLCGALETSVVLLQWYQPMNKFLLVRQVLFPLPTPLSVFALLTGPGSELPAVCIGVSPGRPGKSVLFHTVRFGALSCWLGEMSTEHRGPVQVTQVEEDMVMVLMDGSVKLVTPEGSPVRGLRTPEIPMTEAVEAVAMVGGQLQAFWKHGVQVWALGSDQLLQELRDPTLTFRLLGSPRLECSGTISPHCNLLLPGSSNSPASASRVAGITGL

This assay concerns the target T1, HPK1 (Homo sapiens, UniProt Q92918).
T1 construct: purchased Invitrogen
Description: HPK1 biochemical enzyme assay (microfluidic mobility shift assay). The note with it: 1000 uM (1 mM) ATP; Caliper mobility shift; 1.5 nM HPK1; 30 min preincubation; read-out: HPK1 1000UMATP caliper IC50. In a few lines:
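IC50 values, grouped into activity categories, come from 10-point titrations (top final 3 μM) preincubated 30 min with 1.5 nM enzyme and substrate at pH 7.4. ATP (1 mM), substrate (1 μM) and MgCl2 (5 mM) then added; after 60 min at RT, product separated by microfluidic mobility shift.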
Regarding `O=c1[nH]ccc2nc(-c3cc(CN4CCCC4)ccc3F)cc(Nc3ccc(N4CCC(O)CC4)cn3)c12` [I-177, 2-[2-fluoro-5-(pyrrolidin-1-ylmethyl)phenyl]-4-[[5-(4-hydroxy-1-piperidyl)-2-pyridyl]amino]-6H-1,6-naphthyridin-5-one], the IC50 is ≤ 100 nM.
On to `O=c1[nH]ccc2nc(-c3cc4[nH]ccc4cc3F)cc(Nc3ccc(N4CCC(O)CC4)cn3)c12` [I-118, 2-(5-fluoro-1H-indol-6-yl)-4-[[5-(4-hydroxy-1-piperidyl)-2-pyridyl]amino]-6H-1,6-naphthyridin-5-one], for which the IC50 is 100 to 1000 nM.
For `CC(O)(c1ccc(F)c(-c2cc(Nc3ccc(N4CCC(O)CC4)cn3)c3c(=O)[nH]ccc3n2)c1)C(F)(F)F` (single isomer, unassigned) [I-273, 2-(2-fluoro-5-(1,1,1-tifluoro-2-hydroxy-propan-2-yl)phenyl)-4-((5-(4-hydroxy-piperidin-1-yl)pyridin-2-yl)amino)-1,6-naphthyridin-5(6H)-one], the IC50 is ≤ 100 nM.
With `COc1cc(-c2cc(Nc3cnn(C)c3)c3c(=O)[nH]ccc3n2)c(F)cc1C(=O)N1CCCCC1` [I-199, 2-[2-fluoro-5-methoxy-4-(piperidine-1-carbonyl)phenyl]-4-[(1-methyl-pyrazol-4-yl)amino]-6H-1,6-naphthyridin-5-one], the IC50 lay within 100 to 1000 nM.
Turning to `O=C(Nc1ccc(-c2cc(Nc3ccc(N4CCC(O)CC4)cn3)c3c(=O)[nH]ccc3n2)c(F)c1)C1(C(F)F)CC1` [I-222], the IC50 was ≤ 100 nM.
In the case of `O=C(Nc1ccc(-c2cc(Nc3ccc(N4C[C@H]5COC[C@H]5C4)cn3)c3c(=O)[nH]ccc3n2)c(F)c1)C1CCCCC1` [I-207, N-[4-[4-[[5-[(3aR,6aS)-1,3,3a,4,6,6a-hexahydro-furo[3,4-c]pyrrol-5-yl]-2-pyridyl]amino]-5-oxo-6H-1,6-naphthyridin-2-yl]-3-fluoro-phenyl] cyclohexane-carboxamide], the IC50 is ≤ 100 nM.
With `O=c1[nH]ccc2nc(-c3cc(C4CCCN4)ccc3F)cc(Nc3ccc(N4CCC(O)CC4)cn3)c12` (centres unmarked) [I-243, 2-(2-fluoro-5-pyrrolidin-2-yl-phenyl)-4-[[5-(4-hydroxy-1-piperidyl)-2-pyridyl]amino]-6H-1,6-naphthyridin-5-one] the figure was 100 to 1000 nM.
As to `COc1cc(-c2cc(Nc3ccc(N4CCOCC4)cn3)c3c(=O)[nH]ccc3n2)c(F)cc1C(=O)N1CCCCC1` [I-164, 2-[2-fluoro-5-methoxy-4-(piperidine-1-carbonyl)phenyl]-4-[(5-morpholino-2-pyridyl)amino]-6H-1,6-naphthyridin-5-one], the IC50 was ≤ 100 nM.
For `O=C(Nc1ccc(-c2cc(Nc3ccc(N4CCC(O)CC4)cn3)c3c(=O)[nH]ccc3n2)c(F)c1)C1CC2CCC1C2` (centres unmarked) [I-179, N-[3-fluoro-4-[4-[[5-(4-hydroxy-1-piperidyl)-2-pyridyl]amino]-5-oxo-6H-1,6-naphthyridin-2-yl]phenyl] norbornane-2-carboxamide], the IC50 was in the range of 100 to 1000 nM.
Regarding `CC(C)(C#N)c1ccc(-c2cc(Nc3ccc(N4CCC(O)CC4)cn3)c3c(=O)[nH]ccc3n2)c(F)c1` [I-149, 2-[3-fluoro-4-[4-[[5-(4-hydroxy-1-piperidyl)-2-pyridyl]amino]-5-oxo-6H-1,6-naphthyridin-2-yl]phenyl]-2-methyl-propane-nitrile], the IC50 lay within 100 to 1000 nM.
For `Cc1cc(-c2cc(Nc3ccc(N4CCC(O)CC4)cn3)c3c(=O)[nH]ccc3n2)c(F)cc1CN1CCCCC1` [I-194, 2-[2-fluoro-5-methyl-4-(1-piperidyl-methyl)phenyl]-4-[[5-(4-hydroxy-1-piperidyl)-2-pyridyl]amino]-6H-1,6-naphthyridin-5-one], the IC50 was ≤ 100 nM.
With `COc1cc(-c2cc(Nc3ccc(N4CCC(OC)CC4)cn3)c3c(=O)[nH]ccc3n2)c(F)cc1C(=O)N1CCCCC1` [I-209, 2-[2-fluoro-5-methoxy-4-(piperidine-1-carbonyl)phenyl]-4-[[5-(4-methoxy-1-piperidyl)-2-pyridyl]amino]-6H-1,6-naphthyridin-5-one] the figure was 100 to 1000 nM; with `O=c1[nH]ccc2nc(N3CCC4(CCCN4)CC3)cc(Nc3ccc(N4CCC(O)CC4)cn3)c12` [I-236, 2-(1,8-diazaspiro [4.5]decan-8-yl)-4-[[5-(4-hydroxy-1-piperidyl)-2-pyridyl]amino]-6H-1,6-naphthyridin-5-one], 100 to 1000 nM; with `O=c1[nH]ccc2nc(-c3c(F)ccc4c3CCNC4)cc(Nc3ccc(N4CCC(O)CC4)cn3)c12` [I-220, 2-(6-fluoro-1,2,3,4-tetrahydro-isoquinolin-5-yl)-4-[[5-(4-hydroxy-1-piperidyl)-2-pyridyl]amino]-6H-1,6-naphthyridin-5-one], ≤ 100 nM.
Turning to `O=c1[nH]ccc2nc(C3CC4CCC3C4)cc(Nc3ccc(N4CCC(O)CC4)cn3)c12` (centres unmarked) [I-35, 4-[[5-(4-hydroxy-1-piperidyl)-2-pyridyl]amino]-2-norbornan-2-yl-6H-1,6-naphthyridin-5-one], the IC50 fell in the range of 100 to 1000 nM.
For the compound `O=c1[nH]ccc2nc(-c3cc(C4CC4)ccc3F)cc(Nc3ccc(N4CCC(O)CC4)cn3)c12` [I-43, 2-(5-cyclopropyl-2-fluoro-phenyl)-4-[[5-(4-hydroxy-1-piperidyl)-2-pyridyl]amino]-6H-1,6-naphthyridin-5-one], the IC50 is ≤ 100 nM.
On to `CCC1(C(=O)Nc2ccc(-c3cc(Nc4ccc(N5CCNCC5)cn4)c4c(=O)[nH]ccc4n3)c(F)c2)CCC1` [I-240, 1-ethyl-N-[3-fluoro-4-[5-oxo-4-[(5-piperazin-1-yl-2-pyridyl)amino]-6H-1,6-naphthyridin-2-yl]phenyl] cyclobutane carboxamide], for which the IC50 was 100 to 1000 nM.
For `O=c1[nH]ccc2nc(-c3c(F)ccc4c3CCNC4)cc(Nc3cc(C4CCOC4)n[nH]3)c12` (centres unmarked) [I-265, 2-(6-fluoro-1,2,3,4-tetrahydro-isoquinolin-5-yl)-4-[(3-THF-3-yl-1H-pyrazol-5-yl)amino]-6H-1,6-naphthyridin-5-one], the IC50 was ≤ 100 nM.
`CC(C)(O)c1cc(Nc2ccc(N3CCC(O)CC3)cn2)c2c(=O)[nH]ccc2n1` [I-38, 2-(1-hydroxy-1-methyl-ethyl)-4-[[5-(4-hydroxy-1-piperidyl)-2-pyridyl]amino]-6H-1,6-naphthyridin-5-one]: the IC50 is ≤ 100 nM.
Consider `N#CCc1ccc(F)c(-c2cc(Nc3ccc(N4CCC(O)CC4)cn3)c3c(=O)[nH]ccc3n2)c1` [I-98, 2-[4-fluoro-3-[4-[[5-(4-hydroxy-1-piperidyl)-2-pyridyl]amino]-5-oxo-6H-1,6-naphthyridin-2-yl]phenyl] acetonitrile], for which the IC50 is ≤ 100 nM.
Consider `COc1cc(-c2cc(Nc3ccc(N4CCNCC4)cn3)c3c(=O)[nH]ccc3n2)c(F)cc1C(=O)N(C)C` [I-176, 5-fluoro-2-methoxy-N,N-dimethyl-4-[5-oxo-4-[(5-piperazin-1-yl-2-pyridyl)amino]-6H-1,6-naphthyridin-2-yl] benzamide], for which the IC50 was ≤ 100 nM.
On to `O=c1[nH]ccc2nc(-c3cc4c(cc3F)CCC4N3CC4(CCC4)C3)cc(Nc3ccc(N4CCC(O)CC4)cn3)c12` (centres unmarked) [I-258, 2-[3-(2-azaspiro [3.3]heptan-2-yl)-6-fluoro-indan-5-yl]-4-[[5-(4-hydroxy-1-piperidyl)-2-pyridyl]amino]-6H-1,6-naphthyridin-5-one], for which the IC50 lay in the range of 100 to 1000 nM.
With `O=c1[nH]ccc2nc(-c3cc(CN4CC5(COC5)C4)ccc3F)cc(Nc3ccc(N4CCC(O)CC4)cn3)c12` [I-250] the figure was ≤ 100 nM.
